From patent US12729377B2, “RNAi agents and compositions for inhibiting expression of angiopoietin-like 3 (ANGPTL3), and methods of use” (Arrowhead Pharmaceuticals, Inc., priority 2017, dated 2026) come the findings set out here.

In the oligonucleotide strings, read from the 5' end, every base follows the letter of its sugar. An asterisk marks phosphorothioate; unmarked linkages are phosphodiester. Other units and linkages are bracketed, terminal groups are in braces. A string of capitals states the bases alone. {NAG37} = tridentate N-acetyl-galactosamine targeting ligand, structure (NAG37)s; [invAb] = inverted abasic unit; m = 2'-O-methyl; f = 2'-fluoro

Data set [1] concerns ANGPTL3 mRNA. In words: Example 12: liver ANGPTL3 mRNA by RT-qPCR in LDLR knockout mice. The data set is classed as in vivo, LDLR KO mice. Particulars: for Avg Relative ANGPTL3 mRNA, Normalized to Control: normalized to Group 1 day 15. The source says: (§1) To evaluate the effect of RNAi agent administration in a disease model, mice having a genetic mutation for the LDL receptor (referred to herein as LDLR KO mice) were commercially obtained (The Jackson Laboratory). The LDLR KO mice are homozygous for the Ldlr^tm1Her mutation, and have elevated serum cholesterol levels, particularly when placed on a high fat diet. For three weeks prior to the onset of the study, thirty-nine (39) LDLR KO mice were placed on a high fat diet (Teklad Custom Diets TD.88137). An additional eight (8) LDLR KO mice were placed on a normal chow diet over the same three-week period. Pre-dose serum samples were taken on day −15 and day −1 after a four hour fast. At day 1, each mouse was given a single subcutaneous administration of 200 μl/30 g animal body weight containing the respective mg/kg dose of an ANGPTL3 RNAi agent in D5W (dextrose in 5% water), control (D5W) with no RNAi agent, or a control RNAi agent that included a nucleotide sequence designed to target the Hepatitis B Virus (HBV) genome. A second injection of the same formulation was administered to the animals on day 29. The dosing regimen for the study is recited in the following Table 60:
(§2) Each mouse remained on its respective diet through the duration of study. The RNAi agent tested (AD05488) included a modified sequence and an N-acetyl-galactosamine-containing targeting ligand conjugated to the 5′ terminal end of the sense strand. (See Tables 3, […] modified sequences and targeting ligand structures). The injections were performed between the skin and muscle (i.e. subcutaneous injections) into the loose skin over the neck and shoulder area. Serum was collected on days 8, 15, 22, 29 (pre-second dose), 36, 43, 50, and 57. LDLR KO mice were fasted for four hours prior to each collection. On day 15, four (4) LDLR KO mice from Groups 1, 2, and 3 (i.e., the groups being administered the high fat “Western” diet) were sacrificed after serum collection, and on day 29, an additional four (4) LDLR KO mice from Groups 1, 2, and 3 were sacrificed after serum collection, for the purpose of performing mRNA assessments.
Additionally, ANGPTL3 mRNA levels were also assessed. On day 15, four (4) mice were sacrificed from each of Groups 1, 2, and 3. On day 29, an additional four (4) mice were sacrificed from each of Groups 1, 2, and 3. On day 57, all remaining animals from all Groups were sacrificed. At sacrifice, livers were harvested, and approximately 100 mg liver samples from the median lobes were collected and snap-frozen in liquid nitrogen for RNA isolation. Levels of ANGPTL3 mRNA in the mice livers were then measured by RT-qPCR, and normalized to the mRNA levels of the mice in Group 1 (high fat “Western” diet; D5W administration; day 15 sacrifice), the results of which are set forth in the following Table 66: […]

Data set [2] deals with ANGPTL3 gene. In words: Example 13: serum triglycerides in HFCS diet-fed Rhesus monkeys. Particulars: for Avg TG (Triglycerides) Normalized to Pre-Treatment (Fasted): 4.0 mg/kg sc on day 1 and day 29. It is filed as in vivo. Here is the method:
ANGPTL3 RNAi agent AD05488 was further evaluated in high-fructose corn syrup (HFCS) diet-fed Rhesus monkeys. Rhesus monkeys were placed on an HFCS diet 37 days prior to dosing. These animals were known to develop increased plasma triglycerides greater than 180 mg/dL on the HFCS diet. On day 1 and again on day 29, four (4) Rhesus monkeys were administered a subcutaneous injection containing 4.0 mg/kg of ANGPTL3 RNAi agent AD05488 formulated in saline (n=4). Two additional Rhesus monkeys were administered normal saline control.
Fasted blood samples were drawn for analysis, and serum samples were analyzed on days-8 (predose), 8, 15, 21, 29, and 36. ANGPTL3 expression levels, triglycerides, total cholesterol, high-density lipoprotein (HDL), and low-density lipoprotein (LDL) in serum were measured on a Cobas® Integra 400 (Roche Diagnostics), according to the manufacturer's recommendations.
The ANGPTL3 protein levels, triglyceride levels, total cholesterol levels, HDL levels, and LDL levels for each animal were normalized. For normalization, the level of ANGPTL3 protein, triglyceride, HDL, and total cholesterol, respectively, for each animal at a time point, was divided by the pre-treatment level of expression in that animal (in this case at day −8) to determine the ratio of expression “normalized to pre-treatment.”

Data set [3] deals with ANGPTL3 gene. In words: Example 12: serum HDL in LDLR knockout mice. The data set is classed as in vivo, LDLR KO mice. The conditions noted are these: 3.0 mg/kg sc day 1.
Source text: as §1, §2
ANGPTL3 protein levels in serum were measured by ELISA assay (R&D Systems), according to the manufacturer's recommendations. Triglycerides, total cholesterol, high-density lipoprotein (HDL), and low-density lipoprotein (LDL) in serum were measured on a Cobas® Integra 400 (Roche Diagnostics), according to the manufacturer's recommendations.
The ANGPTL3 protein levels, triglyceride levels, total cholesterol levels, HDL levels, and LDL levels for each animal were normalized. For normalization, respective levels of ANGPTL3 protein, TG, total cholesterol, HDL, or LDL for each animal at a time point was divided by the average pre-treatment level of expression in that animal (in this case the average of day −15 and day −1) to determine the ratio of expression “normalized to pre-treatment.”
Expression at a specific time point was then normalized to the D5W control group that was administered the same diet (i.e., either the high fat “Western” diet or the normal chow-fed diet) by dividing the “normalized to pre-treatment” ratio for an individual animal by the mean “normalized to pretreatment” ratio of all mice in the D5W control group on the respective same diet, resulting in expression for each time point normalized to that in the control group.

“AD05488: RNAi agent duplex: antisense AM07235-AS, sense AM07234-SS (antisense mU*fA*mC*fUmGfAmUfCmAfAmAfUmAfUmGfUmUfGmAfG*mC; sense {NAG37}*[invAb]*mGmCmUmCmAmAmCmAfUfAfUmUmUmGmAmUmCmAmGmUmA*[invAb])”: the “Avg Relative ANGPTL3 mRNA, Normalized to Control” value worked out at 0.024 in data set [1] (3.0 mg/kg days 1 and 29, high fat diet, day 57 sacrifice); 0.060 in data set [1] (3.0 mg/kg days 1 and 29, normal chow, day 57 sacrifice); 0.019 in data set [1] (3.0 mg/kg, high fat diet, day 15 sacrifice); 0.032 in data set [1] (3.0 mg/kg, high fat diet, day 29 sacrifice). In addition, the “reduction in ANGPTL3 mRNA levels” value in data set [1] (both high fat Western diet and normal chow-fed diet, LDLR KO mice) is recorded as “significant reduction”. Also, the “reductions in triglyceride levels” value in data set [2] (4.0 mg/kg on days 1 and 29, HFCS diet-fed Rhesus monkeys) is recorded as “reductions”. Moreover, the “Avg TG (Triglycerides) Normalized to Pre-Treatment (Fasted)” value in data set [2] (Day 8) came out at 0.351; in data set [2] (Day 15) it was 0.244; in data set [2] (Day 21) it was 0.233; in data set [2] (Day 29), 0.302; in data set [2] (Day 36) it was 0.177. For the same substance, the “Avg HDL Normalized to Pre-Treatment and Control (Diet Matched)” value is given as 0.693 in data set [3] (High Fat Diet, Day 8); 0.735 in data set [3] (High Fat Diet, Day 15); 0.716 in data set [3] (High Fat Diet, Day 22); 0.711 in data set [3] (High Fat Diet, Day 29 (pre-second dose)); 0.645 in data set [3] (Normal Diet, Day 8); 0.745 in data set [3] (Normal Diet, Day 15). The “Avg HDL Normalized to Pre-Treatment and Control (Diet Matched)” value in data set [3] (Normal Diet, Day 22) was 0.766; in data set [3] (Normal Diet, Day 29 (pre-second dose)), 0.737.
